In ChEMBL document CHEMBL1125358, “Effect of conformational mobility and hydrogen-bonding interactions on the selectivity of some guanidinoaryl-substituted mechanism-based inhibitors of trypsin-like serine proteases” (J Med Chem, 1992):
Several values for one entry are separate records, joined by “and”; a condition that tells them apart may be missing. Identical values can stand only once.

Assays:
[1] = molecular target: Tissue-type plasminogen activator (Homo sapiens, UniProt P00750); assay: Compound was tested for its binding affinity against the enzyme Tissue plasminogen activator
Tissue-type plasminogen activator, sequence (P00750 whole entry): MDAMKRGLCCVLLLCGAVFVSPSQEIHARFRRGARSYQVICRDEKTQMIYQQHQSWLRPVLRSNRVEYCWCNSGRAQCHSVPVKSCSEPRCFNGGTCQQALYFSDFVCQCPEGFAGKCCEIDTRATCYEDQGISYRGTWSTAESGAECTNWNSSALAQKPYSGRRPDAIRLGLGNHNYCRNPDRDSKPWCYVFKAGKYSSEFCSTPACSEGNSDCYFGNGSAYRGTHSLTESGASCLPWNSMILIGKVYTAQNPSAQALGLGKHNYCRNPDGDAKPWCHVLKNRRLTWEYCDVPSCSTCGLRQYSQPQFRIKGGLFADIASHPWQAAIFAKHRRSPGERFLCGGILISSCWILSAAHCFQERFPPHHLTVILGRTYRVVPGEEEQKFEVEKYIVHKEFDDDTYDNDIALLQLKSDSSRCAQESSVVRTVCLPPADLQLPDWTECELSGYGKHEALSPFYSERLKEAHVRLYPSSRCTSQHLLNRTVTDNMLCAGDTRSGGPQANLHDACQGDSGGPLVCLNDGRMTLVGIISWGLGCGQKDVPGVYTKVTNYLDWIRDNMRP

Prothrombin [2] = molecular target: T1, Prothrombin (Homo sapiens, UniProt P00734); assay: Compound was tested for the rate constant of deacylation against thrombin
Plasminogen [3] = molecular target: T2, Plasminogen (Homo sapiens, UniProt P00747); assay: Compound was tested for the rate constant of acylation against the enzyme plasmin
T2 sequence (P00747 97-580 limits assumed): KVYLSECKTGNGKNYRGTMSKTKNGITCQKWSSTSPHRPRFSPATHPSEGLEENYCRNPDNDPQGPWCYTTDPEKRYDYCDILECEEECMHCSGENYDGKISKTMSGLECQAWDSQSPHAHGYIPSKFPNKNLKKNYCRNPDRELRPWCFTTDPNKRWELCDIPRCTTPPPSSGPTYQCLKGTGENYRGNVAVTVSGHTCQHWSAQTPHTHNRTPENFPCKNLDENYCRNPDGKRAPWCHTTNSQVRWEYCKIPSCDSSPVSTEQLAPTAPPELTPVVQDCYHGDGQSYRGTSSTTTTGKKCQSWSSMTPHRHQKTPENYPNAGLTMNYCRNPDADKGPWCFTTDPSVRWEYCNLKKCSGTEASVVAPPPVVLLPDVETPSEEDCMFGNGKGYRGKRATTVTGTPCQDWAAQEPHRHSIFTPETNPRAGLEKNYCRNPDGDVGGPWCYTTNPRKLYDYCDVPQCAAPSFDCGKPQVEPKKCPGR
T2 sequence (P00747 581-810 limits assumed): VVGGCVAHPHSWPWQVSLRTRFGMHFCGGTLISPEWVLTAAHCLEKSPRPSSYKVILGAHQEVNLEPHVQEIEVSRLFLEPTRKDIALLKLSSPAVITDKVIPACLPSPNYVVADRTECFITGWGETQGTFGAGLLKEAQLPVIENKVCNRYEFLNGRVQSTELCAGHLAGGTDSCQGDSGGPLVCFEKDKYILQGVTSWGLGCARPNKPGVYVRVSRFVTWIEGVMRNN

Serine protease 1 [4] = molecular target: T3, Serine protease 1 (Bos taurus, UniProt P00760); assay: Compound was tested for its binding affinity against the enzyme trypsin
T3 sequence (P00760 whole entry): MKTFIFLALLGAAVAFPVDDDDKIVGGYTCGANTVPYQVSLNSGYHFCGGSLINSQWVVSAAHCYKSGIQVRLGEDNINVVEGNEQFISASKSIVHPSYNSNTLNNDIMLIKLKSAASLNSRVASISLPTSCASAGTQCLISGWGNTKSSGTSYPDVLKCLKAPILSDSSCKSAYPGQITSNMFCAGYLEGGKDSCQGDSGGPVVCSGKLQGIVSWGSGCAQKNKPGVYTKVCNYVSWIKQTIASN

Prothrombin [5] = molecular target: T1, Prothrombin; assay: Compound was tested for the rate constant of acylation against the enzyme thrombin
[6] = molecular target: T4, Urokinase-type plasminogen activator (Homo sapiens, UniProt P00749)
Description: Compound was tested for the rate constant of acylation against the enzyme Urokinase-type plasminogen activator

Plasminogen [7] = molecular target: T2, Plasminogen; assay: Compound was tested for its binding affinity against the enzyme plasmin
[8] = molecular target: T5, Serine protease 1 (Bos taurus) (UniProt P00760)
T5 sequence (whole entry): T3 sequence (P00760 whole entry)

Prothrombin [9] = molecular target: T1, Prothrombin; assay: Compound was tested for its binding affinity against the enzyme thrombin
[10] = molecular target: T4, Urokinase-type plasminogen activator; assay: Compound was tested for its binding affinity against the enzyme Urokinase-type plasminogen activator
Chymotrypsinogen A [11] = molecular target: T6, Chymotrypsinogen A (Bos taurus, UniProt P00766); assay: Compound was tested for its binding affinity against the enzyme alpha-chymotrypsin
[12] = molecular target: T4, Urokinase-type plasminogen activator; assay: Compound was tested for the rate constant of deacylation against Urokinase-type plasminogen activator
[13] = molecular target: T4, Urokinase-type plasminogen activator; assay: Compound was tested for the rate constant of deacylation against the enzyme Urokinase-type plasminogen activator
Serine protease 1 [14] = molecular target: T3, Serine protease 1; assay: Compound was tested for the rate constant of deacylation against the enzyme trypsin
[15] = molecular target: T4, Urokinase-type plasminogen activator; assay: Compound was tested for the rate constant of deacylation against the enzyme Urokinase-type plasminogen activator; kd was too fast to measure
[16] = molecular target: T4, Urokinase-type plasminogen activator; assay: Compound was tested for the rate constant of deacylation against Urokinase-type plasminogen activator
Plasminogen [17] = molecular target: T2, Plasminogen; assay: Compound was tested for the rate constant for deacylation against plasmin; kd was too fast to measure
Trypsin II (Bos taurus) = molecular target: T7, Trypsin II (Bos taurus) (UniProt Q29463); assay: Compound was tested for the rate constant of acylation against the enzyme trypsin
T7 sequence (whole entry): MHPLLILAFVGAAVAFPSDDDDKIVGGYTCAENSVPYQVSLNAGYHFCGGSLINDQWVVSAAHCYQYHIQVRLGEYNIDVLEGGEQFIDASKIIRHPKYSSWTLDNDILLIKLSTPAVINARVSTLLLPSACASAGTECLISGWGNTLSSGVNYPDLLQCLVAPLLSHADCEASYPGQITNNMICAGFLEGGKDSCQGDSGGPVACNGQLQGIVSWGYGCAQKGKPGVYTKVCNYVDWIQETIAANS

Chymotrypsinogen A [18] = molecular target: T6, Chymotrypsinogen A; assay: Compound was tested for the rate constant of deacylation against alpha-chymotrypsin; kd was too fast to measure

Row | Structure (SMILES) | Kd (Prothrombin [2]) | Ka (Plasminogen [3]) | Ki (Serine protease 1 [4]) | Ka (Prothrombin [5]) | Ka [6] | Ki (Plasminogen [7]) | Ka [8] | Ki (Prothrombin [9]) | Ki [10] | Ki (Chymotrypsinogen A [11]) | Kd [13] | Kd (Serine protease 1 [14]) | Kd [16] | further results
1 | N=C(N)Nc1ccc(C2C/C(=C/I)OC(=O)C2NC(=O)c2ccccc2)cc1 (centres undefined) |  |  | 670 nM and 2760 nM |  |  |  |  |  | 18700 nM | 170 nM | 1.33e-05 s⁻¹ |  |  | Kd [12]: 1.3e-05 s⁻¹
2 | C=C1CC(c2ccc(NC(=N)N)cc2)CC(=O)O1 (centres undefined) |  |  | 9400 nM |  |  |  |  |  | 120 nM |  |  | 3.3e-05 s⁻¹ | 0.00015 s⁻¹ | 
3 | C=C1CCC(c2ccc(CNC(=N)N)cc2)C(=O)O1 (centres undefined) | 0.0001 s⁻¹ | 57 min⁻¹ |  | 5.58 min⁻¹ | 9.8 min⁻¹ | 466000 nM |  | 37900 nM | 350 nM |  | 0.000733 s⁻¹ |  |  | Kd (Plasminogen [17]): Fast
4 | C=C1CC(c2ccc(NC(=N)N)cc2)C(NC(=O)c2ccccc2)C(=O)O1 (centres undefined) |  |  | 10000 nM |  |  |  |  |  |  | 460 nM |  | 0.00025 s⁻¹ | 3.3e-05 s⁻¹ | Ka (Trypsin II (Bos taurus)): 10.2 min⁻¹; Kd (Chymotrypsinogen A [18]): Fast

More lines, main results first:

Row | Kd (Prothrombin [2]) | Ka (Plasminogen [3]) | Ki (Serine protease 1 [4]) | Ka (Prothrombin [5]) | Ka [6] | Ki (Plasminogen [7]) | Ka [8] | Ki (Prothrombin [9]) | Ki [10] | Ki (Chymotrypsinogen A [11]) | Kd [13] | Kd (Serine protease 1 [14]) | Kd [16] | Structure (SMILES) | further results
5 | 0.000217 s⁻¹ | 10.2 min⁻¹ | 80 nM | 27.2 min⁻¹ | 7.56 min⁻¹ | 1190 nM | 18.4 min⁻¹ | 14800 nM |  |  |  |  |  | N=C(N)NCc1ccc(C2CC/C(=C/I)OC2=O)cc1 (centres undefined) | Ki [1]: 120 nM
6 |  |  | 4280 nM |  | 2.61 min⁻¹ |  | 0.54 min⁻¹ |  | 7830 nM |  |  | 0.00033 s⁻¹ |  | N=C(N)Nc1ccc(C2CC(=O)O/C(=C\I)C2)cc1 (centres undefined) | Kd [15]: Fast
